Test results from ChEMBL document CHEMBL1145521, “Lenalidomide inhibits the malignant clone and up-regulates the SPARC gene mapping to the commonly deleted region in 5q- syndrome patients” (2007).
Calls of active or inactive are those of the source. The calls are words filed in the database; no cut-off is given here.

Key:
[1] = Upregulation of CXCL1 gene expression in healthy human erythroblasts after 7 days relative to control; type: functional
[2] = Increase in activin A gene expression in erythroid progenitor cells from non-del(5q) myelodysplastic syndrome patient by RT-PCR after 7 days relative to control; type: functional, Homo sapiens
[3] = Upregulation of SPARC gene expression in healthy human erythroblasts after 7 days relative to control; type: functional
[4] = Upregulation of CHI3L1 gene expression in erythroblasts from myelodysplastic syndrome del(5q) patient after 7 days relative to control; type: functional; settings: Homo sapiens
[5] = Upregulation of RTN1 gene expression in erythroblasts from myelodysplastic syndrome del(5q) patient after 7 days relative to control; type: functional; settings: Homo sapiens
[6] = Decrease in erythroid differentiation of CD34+ progenitor cells from myelodysplastic syndrome del(5q) patient assessed as CD36 expression after 14 days; type: functional; settings: Homo sapiens
[7] = Down-regulation of AMMECR1 gene expression in healthy human erythroblasts after 7 days relative to control; type: functional
Homo sapiens [8] = organism: Homo sapiens; test: Inhibition of cell proliferation of human bone marrow mononuclear cells assessed as [3H]thymidine incorporation upto 500 uM after 4 days; type: functional
[9] = Down-regulation of HBBP1 gene expression in healthy human erythroblasts after 7 days relative to control; type: functional
[10] = Upregulation of TPBG gene expression in healthy human erythroblasts after 7 days relative to control; type: functional
[11] = Upregulation of CYP4F3 gene expression in healthy human erythroblasts after 7 days relative to control; type: functional
Homo sapiens [12] = organism: Homo sapiens; test: Growth inhibition of CD34+ progenitor cells from non-del(5q) myelodysplastic syndrome patient after 14 days; type: functional
[13] = Down-regulation of GYPE gene expression in erythroblasts from myelodysplastic syndrome del(5q) patient after 7 days relative to control; type: functional; settings: Homo sapiens
[14] = Down-regulation of KLF1 gene expression in healthy human erythroblasts after 7 days relative to control; type: functional
[15] = Upregulation of MAOA gene expression in erythroblasts from myelodysplastic syndrome del(5q) patient after 7 days relative to control; type: functional; settings: Homo sapiens
[16] = Down-regulation of GYPB gene expression in healthy human erythroblasts after 7 days relative to control; type: functional
[17] = Decrease in myeloid differentiation of CD34+ progenitor cells from myelodysplastic syndrome del(5q) patient assessed as CD33 expression after 14 days; type: functional; settings: Homo sapiens
[18] = Upregulation of RTN1 gene expression in healthy human erythroblasts after 7 days relative to control; type: functional
[19] = Down-regulation of THRB gene expression in healthy human erythroblasts after 7 days relative to control; type: functional
[20] = Upregulation of INHBA gene expression in healthy human erythroblasts after 7 days relative to control; type: functional
[21] = Upregulation of CHI3L1 gene expression in healthy human erythroblasts after 7 days relative to control; type: functional
[22] = Down-regulation of HBB gene expression in healthy human erythroblasts after 7 days relative to control; type: functional
[23] = Upregulation of VSIG4 gene expression in erythroblasts from myelodysplastic syndrome del(5q) patient after 7 days relative to control; type: functional; settings: Homo sapiens
[24] = Down-regulation of THRB gene expression in erythroblasts from myelodysplastic syndrome del(5q) patient after 7 days relative to control; type: functional; settings: Homo sapiens
[25] = Down-regulation of HBA2 gene expression in healthy human erythroblasts after 7 days relative to control; type: functional
[26] = Upregulation of DEFA1 gene expression in erythroblasts from myelodysplastic syndrome del(5q) patient after 7 days relative to control; type: functional; settings: Homo sapiens
[27] = Down-regulation of LRP11 gene expression in erythroblasts from myelodysplastic syndrome del(5q) patient after 7 days relative to control; type: functional; settings: Homo sapiens
[28] = Upregulation of SEC14L5 gene expression in erythroblasts from myelodysplastic syndrome del(5q) patient after 7 days relative to control; type: functional; settings: Homo sapiens
[29] = Upregulation of SPARC gene expression in erythroblasts from myelodysplastic syndrome del(5q) patient after 7 days relative to control; type: functional; settings: Homo sapiens
[30] = Upregulation of DSC2 gene expression in erythroblasts from myelodysplastic syndrome del(5q) patient after 7 days relative to control; type: functional; settings: Homo sapiens
[31] = Increase in activin A gene expression in CD34- mononuclear cells from del(5q) myelodysplastic syndrome patient by RT-PCR after 2 days relative to control
[32] = Down-regulation of GYPE gene expression in healthy human erythroblasts after 7 days relative to control; type: functional
[33] = Upregulation of DEFA1 gene expression in healthy human erythroblasts after 7 days relative to control; type: functional
[34] = Upregulation of PRG3 gene expression in healthy human erythroblasts after 7 days relative to control; type: functional
[35] = Upregulation of CYP4F3 gene expression in erythroblasts from myelodysplastic syndrome del(5q) patient after 7 days relative to control; type: functional; settings: Homo sapiens
[36] = Upregulation of SEC14L5 gene expression in healthy human erythroblasts after 7 days relative to control; type: functional
[37] = Down-regulation of GYPA gene expression in erythroblasts from myelodysplastic syndrome del(5q) patient after 7 days relative to control; type: functional; settings: Homo sapiens
[38] = Growth inhibition of CD34- mononuclear cells from myelodysplastic syndrome del(5q-) patient by FISH after 7 days; type: functional, Homo sapiens
[39] = Down-regulation of HBA1 gene expression in healthy human erythroblasts after 7 days relative to control; type: functional
[40] = Down-regulation of GYPB gene expression in erythroblasts from myelodysplastic syndrome del(5q) patient after 7 days relative to control; type: functional; settings: Homo sapiens
[41] = Increase in SPARC gene expression in CD34- mononuclear cells from del(5q) myelodysplastic syndrome patient by RT-PCR after 7 days relative to control
[42] = Down-regulation of HBB gene expression in erythroblasts from myelodysplastic syndrome del(5q) patient after 7 days relative to control; type: functional; settings: Homo sapiens
[43] = Upregulation of MAOA gene expression in healthy human erythroblasts after 7 days relative to control; type: functional
[44] = Down-regulation of ALAS2 gene expression in healthy human erythroblasts after 7 days relative to control; type: functional
[45] = Down-regulation of GYPA gene expression in healthy human erythroblasts after 7 days relative to control; type: functional
[46] = Upregulation of ANGPT2 gene expression in erythroblasts from myelodysplastic syndrome del(5q) patient after 7 days relative to control; type: functional; settings: Homo sapiens
[47] = Down-regulation of HBG2 gene expression in healthy human erythroblasts after 7 days relative to control; type: functional
[48] = Down-regulation of ALAS2 gene expression in erythroblasts from myelodysplastic syndrome del(5q) patient after 7 days relative to control; type: functional; settings: Homo sapiens
[49] = Down-regulation of TUBB2 gene expression in erythroblasts from myelodysplastic syndrome del(5q) patient after 7 days relative to control; type: functional; settings: Homo sapiens
[50] = Down-regulation of CXADR gene expression in erythroblasts from myelodysplastic syndrome del(5q) patient after 7 days relative to control; type: functional; settings: Homo sapiens
[51] = Down-regulation of LRP11 gene expression in healthy human erythroblasts after 7 days relative to control; type: functional
[52] = Down-regulation of HBA2 gene expression in erythroblasts from myelodysplastic syndrome del(5q) patient after 7 days relative to control; type: functional; settings: Homo sapiens
[53] = Decrease in erythroid differentiation of CD34+ progenitor cells from myelodysplastic syndrome del(5q) patient assessed as glycophorin A expression after 14 days; type: functional; settings: Homo sapiens
[54] = Upregulation of VSIG4 gene expression in healthy human erythroblasts after 7 days relative to control; type: functional
[55] = Upregulation of PPIC gene expression in erythroblasts from myelodysplastic syndrome del(5q) patient after 7 days relative to control; type: functional; settings: Homo sapiens
[56] = Increase in SPARC gene expression in CD34- mononuclear cells from del(5q) myelodysplastic syndrome patient by RT-PCR after 2 days relative to control
Homo sapiens [57] = organism: Homo sapiens; test: Inhibition of cell proliferation of CD34+ progenitor cells from myelodysplastic syndrome del(5q) patient after 14 days; type: functional
[58] = Down-regulation of CXADR gene expression in healthy human erythroblasts after 7 days relative to control; type: functional
[59] = Down-regulation of HBBP1 gene expression in erythroblasts from myelodysplastic syndrome del(5q) patient after 7 days relative to control; type: functional; settings: Homo sapiens
[60] = Down-regulation of KLF1 gene expression in erythroblasts from myelodysplastic syndrome del(5q) patient after 7 days relative to control; type: functional; settings: Homo sapiens
[61] = Down-regulation of SPTA1 gene expression in erythroblasts from myelodysplastic syndrome del(5q) patient after 7 days relative to control; type: functional; settings: Homo sapiens
[62] = Upregulation of PRG3 gene expression in erythroblasts from myelodysplastic syndrome del(5q) patient after 7 days relative to control; type: functional; settings: Homo sapiens
[63] = Upregulation of CXCL1 gene expression in erythroblasts from myelodysplastic syndrome del(5q) patient after 7 days relative to control; type: functional; settings: Homo sapiens
[64] = Increase in SPARC gene expression in erythroid progenitor cells from non-del(5q) myelodysplastic syndrome patient by RT-PCR after 7 days relative to control; type: functional, Homo sapiens
[65] = Down-regulation of HBG2 gene expression in erythroblasts from myelodysplastic syndrome del(5q) patient after 7 days relative to control; type: functional; settings: Homo sapiens
[66] = Upregulation of INHBA gene expression in erythroblasts from myelodysplastic syndrome del(5q) patient after 7 days relative to control; type: functional; settings: Homo sapiens
[67] = Down-regulation of AMMECR1 gene expression in erythroblasts from myelodysplastic syndrome del(5q) patient after 7 days relative to control; type: functional; settings: Homo sapiens
[68] = Upregulation of TPBG gene expression in erythroblasts from myelodysplastic syndrome del(5q) patient after 7 days relative to control; type: functional; settings: Homo sapiens
[69] = Increase in activin A gene expression in CD34- mononuclear cells from del(5q) myelodysplastic syndrome patient by RT-PCR after 7 days relative to control
[70] = Down-regulation of HBA1 gene expression in erythroblasts from myelodysplastic syndrome del(5q) patient after 7 days relative to control; type: functional; settings: Homo sapiens
[71] = Down-regulation of SPTA1 gene expression in healthy human erythroblasts after 7 days relative to control; type: functional
[72] = Down-regulation of TUBB2 gene expression in healthy human erythroblasts after 7 days relative to control; type: functional
[73] = Upregulation of ANGPT2 gene expression in healthy human erythroblasts after 7 days relative to control; type: functional
[74] = Upregulation of DSC2 gene expression in healthy human erythroblasts after 7 days relative to control; type: functional
[75] = Upregulation of PPIC gene expression in healthy human erythroblasts after 7 days relative to control; type: functional

**Q.** What does the source list for `Nc1cccc2c1CN(C1CCC(=O)NC1=O)C2=O` (stereo not given) [LENALIDOMIDE]?
**A.** Fold change [1]: 2.9; Fold change [2]: 12.6; Fold change [3]: 4.8; Fold change [4]: 6.1; Fold change [5]: 3.5; Activity [6]: Active; Fold change [7]: -3.2; Activity (Homo sapiens [8]): inactive; Fold change [9]: 2.8; Fold change [10]: 5.4; Fold change [11]: 3.5; Activity (Homo sapiens [12]): Active; Fold change [13]: 3; Fold change [14]: 3.4; Fold change [15]: 3.9; Fold change [16]: 2.9; Activity [17]: Active; Fold change [18]: 5.4; Fold change [19]: 2; Fold change [20]: 2.5; Fold change [21]: 10.3; Fold change [22]: 3.4; Fold change [23]: 9.5; Fold change [24]: 2.8; Fold change [25]: 9.7; Fold change [26]: 8.9; Fold change [27]: 2.4; Fold change [28]: 2.8; Fold change [29]: 4.1; Fold change [30]: 3; Fold change [31]: 2.5; Fold change [32]: 2.2; Fold change [33]: 16.3; Fold change [34]: 1.7; Fold change [35]: 3.1; Fold change [36]: 3.6; Fold change [37]: 3.7; growth inhibition (GI) [38]: 65%; Fold change [39]: 11.1; Fold change [40]: 3.6; Fold change [41]: 5.8; Fold change [42]: 7.7; Fold change [43]: 2.1; Fold change [44]: 7.6; Fold change [45]: 9.1; Fold change [46]: 3.3; Fold change [47]: -1.4; Fold change [48]: 3.3; Fold change [49]: 8.2; Fold change [50]: 3.6; Fold change [51]: 4.8; Fold change [52]: 11; Activity [53]: Active; Fold change [54]: 9.5; Fold change [55]: 5.2; Fold change [56]: 8.1; Activity (Homo sapiens [57]): Active; Fold change [58]: 5.9; Fold change [59]: 4.9; Fold change [60]: 3.7; Fold change [61]: 4.5; Fold change [62]: 2.9; Fold change [63]: 4.1; Fold change [64]: 9.3; Fold change [65]: -4.4; Fold change [66]: 4.9; Fold change [67]: 2.9; Fold change [68]: 4.1; Fold change [69]: 2.6; Fold change [70]: 8.5; Fold change [71]: 4.8; Fold change [72]: 13.9; Fold change [73]: 1.9; Fold change [74]: 3.6; Fold change [75]: 10.9
